Results reported in patent US4999374A, “Veterinary treatment” (priority 1987, dated 1991).
≈ marks a conversion by molar mass, not a printed value. Where “and” joins values, the source holds several entries; their conditions need not be identical. Identical values can stand only once. Like-named read-outs stand apart in the source and are kept apart here.

How the values were obtained:
T. hyodysenteriae [1] = experiment: Comparative efficacy of M139603 and lasalocid in experimentally infected mice (Example 4, Table 4); assay type: in vivo, mice (strain MF-1); conditions: 20 ppm feed
From the text: (§1) The infection leads to varying degrees of caecitis, the lesions of which are apparent in animals killed on or about the sixth day post-infection. Caecal specimens examined by bacteriological culture techniques applicable for enumeration of organisms reveal the presence of high populations of T.hyodysenteriae. This disease-model was used in experiments to compare the efficacy of M139603 with that of salinomycin, lasalocid and monensin in suppressing the infection.
(§2) In this study, the efficacy of M139603 was tested at 25 ppm feed and that of monensin (Eli Lilly) at 50 or 100 ppm. Groups of infected mice, five per group, were offered the drugs in the feed on five continuous days before killing. Caecal materials were subjected to bacteriological examination to enumerate the populations of viable treponemes per gram of material. […] The group mean in respect of the unmedicated groups was 7.9 cfu/g.
In this study, the efficacy of M139603 was tested at 20 ppm feed and that of lasalocid (Hoffman la Roche) at 20, 40 and 80 ppm. The test procedures were similar to those above except for the size of the inoculum of T.hyodysenteriae (1.2×10^7 cfu) used in infecting each mouse. […] The mean (log10) counts of viable treponemes found in the caecal contents of the various groups were: 2.5 cfu/g caecum (139603 at 20 ppm), 7.35 cfu (lasalocid at 20 ppm), 7.45 cfu (lasalocid at 40 ppm), 3.81 cfu (lasalocid at 80 ppm) and 8.50 cfu (unmedicated control).

T. hyodysenteriae [2] = experiment: MIC of M139603 against thirteen T. hyodysenteriae isolates vs salinomycin and dimetridazole (Example 1, Table 1); assay type: cell-based, Treponema hyodysenteriae; conditions: for MIC: Brachyspira hyodysenteriae
Description: The minimum inhibitory concentration of M139603 was tested in parallel with dimetridazole (May & Baker) and the growth-promoting polyether antibiotic salinomycin (Hoechst) against thirteen strains of T. hyodysenteriae.

[3] = tested on: T. hyodysenteriae strain "P18a"; experiment: Agar-dilution M.I.C. test of M139603 and analogues (Example 8, Table 8); assay type: cell-based, Treponema hyodysenteriae; conditions: Brachyspira hyodysenteriae, Isosensitest agar with 5% sheep-blood, anaerobic, 39° C., 48-72 hours
Description: T. hyodysenteriae strain "P18a" was used in both in vitro and in vivo tests as above.
Minimum inhibitory concentration test: An agar-dilution M.I.C. test procedure was applied in the study. The susceptibility of the bacterial strain was tested against a range of dilutions (0.3 mg; 0.1 mg; 0.03 mg; 0.01 mg and 0.003 mg/l medium) of each compound incorporated in plates of Isosensitest agar (Oxoid CM471) with 5% added sheep-blood. The plates, `spot-inoculated` (Steer's type multipoint inoculator) with a standard culture-suspension of the test strain, were incubated anaerobically at 39° C. for 48-72 hours before reading the results. The M.I.C. of each compound was read as the lowest concentration yielding no growth (no haemolysis) or a hazy growth (faint haemolysis) on the site of the spot-inoculation.

T. hyodysenteriae [4] = experiment: Comparative efficacy of M139603 and salinomycin in experimentally infected mice (Example 3, Table 3); assay type: in vivo, mice (strain MF-1); conditions: 30 ppm feed
From the text: as §1, §2
In this study, the efficacy of M139603 was tested at 30 ppm and that of salinomycin at 30, 40 or 60 ppm feed. The mouse-groups and test-procedureswere simi-ar to those applied under Example 2 above.

T. hyodysenteriae (P18a) = experiment: Efficacy of M139603 in preventing swine dysentery in pigs, experimental infection (Example 5, Table 5); assay type: in vivo; conditions: 25 ppm feed
Description: The efficacy of M139603 was tested at 25 ppm feed.
(§3) In this studY two groups (Gp.1 and Gp.2) of pigs, six per group, were experimentally infected with a pathogenic strain of T. hyodysenteriae (P18a, IRAD(Institute for Animal Health), Compton, Berks, U.K.) by oro-gastric inoculation of 50 ml of a culture suspension (1×10^7cfu/ml) of the organism into each animal. From post-infection day (PID) to PID 35 the animals in Gp. 1 were offered ad lib a feed comprising "Kwikwean" meal (Rank, Hovis, McDougall Research Ltd; containing no antibiotics) incorporated with M139603 at 25 ppm. Gp.2 remained on unmedicated feed throughout the trial. Drug efficacy was measured primarily on the basis of the number of diarrhoea or dysentery days in relation to pig-days within a group and on the average daily weight gain per pig, in each group over the period of the trial. The daily gain was calculated by dividing group gain at end of trial (PID 35) by the total number of pig-days from PID 1 to PID 35. […] In the experiment the pigs were exposed to high infective doses of the organism a day before the introduction of the drug. Under normal circumstances preventive dose-regimes are applied on animals at risk and not on those already infected.

[5] = tested on: T. hyodysenteriae (strain "P18a"); experiment: Efficacy of M139603 in pigs, natural infection (Example 6, Table 6); assay type: in vivo; conditions: for Mortality (+ culls): 38 days, 6 pigs; for Number diarrhoea/dysentery days / Percent diarrhoea/dysentery days: pi 1 to 38; for Average weight at end: start 10.95 kg
Description: as §3
In this study, eighteen pigs were allocated to three equal groups (Gp.1-3). Feed incorporated with the drug at 25 or 15 ppm was offered to Gp.1 and 2, respectively, on thirty-eight consecutive days commencing six hours pre-infection. Gp.3 remained on unmedicated feed throughout the trial. The pigs were infected with T. hyodysenteriae (strain "P18a") using methods and materials similar to those applied in Example 5. However, seven days following this exposure (post-infection day 7), over a period of seven consecutive days, the pigs in Gp. 1 and 2 were allowed to co-mingle for about two hours each day with some dysenteric "seeder pigs" in a nearby pen. Drug efficacy, as in Example 6, was assessed primarily on the basis of the total number of diarrhoea/dysentery days per group and on the basis of average daily weight gain per pig per group. The results are indicative of the good efficacy of M139603 even at a level as low as 15 ppm feed in preventing swine dysentery. At this dose-level, the daily drug-intake is unlikely to be more than 0.9 mg/kg/body-weight, if daily feed is calculated at 6% of a pig's body-weight.

With CO[C@@H](C)[C@H]1C[C@H](C)[C@H]([C@@H](C)/C=C/[C@@H]2CC[C@@H](C)[C@H](/C(=C/[C@H]3CCC[C@@H](C)[C@@H]3[C@H](C)C(=O)C3=C(O)COC3=O)CO)O2)O1 [Analogue M139603, tetronasin] the “Complete suppression of infection” value (T. hyodysenteriae [1]) was “completely suppressed the infection in two mice”, the “Efficacy compared with lasalocid at 80 ppm” value (T. hyodysenteriae [1]) was “greater than that of lasalocid at 80 ppm” and the “Mean (log10) viable treponemes per gram caecal contents” value (T. hyodysenteriae [1]; 5 days, group mean (table)) was 1.62 log10 per gram. The “Viable treponemes per gram caecal contents” value (T. hyodysenteriae [1]; 5 days, individual mice) was 0 per gram and 4.3 × 10^3 per gram and 3.0 × 10^2 per gram and 1.0 × 10^2 per gram, the “Mean (log10) count of viable treponemes in caecal contents” value (T. hyodysenteriae [1]; log10) was 2.5 cfu/g caecum and the “Reduction of T. hyodysenteriae populations” value (T. hyodysenteriae [1]; other three mice) was “markedly reduced”. For the same compound, the MIC (T. hyodysenteriae [2]; isolate B78, read-out: MIC) was 0.5 µg/mL, the MIC (T. hyodysenteriae [2]; isolate S82/6, read-out: MIC) was 0.2 µg/mL and the MIC (T. hyodysenteriae [2]; isolate S82/7, read-out: MIC) was 0.2 µg/mL. It also gave an MIC (T. hyodysenteriae [2]; isolate S83/1, read-out: MIC) of less than 0.1 µg/mL, an MIC (T. hyodysenteriae [2]; isolate S83/2, read-out: MIC) of 0.5 µg/mL and an MIC (T. hyodysenteriae [2]; isolate S83/5, read-out: MIC) of less than 0.1 µg/mL. For the same compound, the MIC (T. hyodysenteriae [2]; isolate S85/1, read-out: MIC) was 0.2 µg/mL, the MIC (T. hyodysenteriae [2]; isolate S85/2, read-out: MIC) was 0.2 µg/mL and the MIC (T. hyodysenteriae [2]; isolate S85/3, read-out: MIC) was 0.2 µg/mL. For the same compound, the MIC (T. hyodysenteriae [2]; isolate S85/8, read-out: MIC) was 0.2 µg/mL, the MIC (T. hyodysenteriae [2]; isolate S85/9, read-out: MIC) was less than 0.1 µg/mL and the MIC (T. hyodysenteriae [2]; isolate S86/1, read-out: MIC) was less than 0.1 µg/mL. For the same compound, the MIC (T. hyodysenteriae [2]; isolate S86/2, read-out: MIC) was 0.2 µg/mL, the MIC (T. hyodysenteriae [2]; mean of 13 strains (table), read-out: Mean MIC) was 0.215 µg/mL and the “MIC compared with salinomycin (statistical analysis)” value (T. hyodysenteriae [2]; thirteen strains) was “significantly (p<0.001) lower MIC”. For the same compound, the MIC [3] was 0.01 µg/mL (≈ 0.0166 µM), the Suppression of infection (T. hyodysenteriae [4]) was “suppressed the infection” and the “Mean (log10) viable treponemes per gram caecum & contents” value (T. hyodysenteriae [4]; 5 days, group mean) was 0 log10 per gram. For the same compound, the “Viable treponemes per gram caecum & contents” value (T. hyodysenteriae [4]; 5 days, individual mice) was “negative”, the “Efficacy in preventing swine dysentery” value (T. hyodysenteriae (P18a)) was “preventing or minimising the incidence of swine dysentery” and the “Mortality (+ culls)” value (T. hyodysenteriae (P18a); 35 days, 6 pigs) was 0. For the same compound, the Average daily weight-gain (T. hyodysenteriae (P18a); PID 1-35) was 0.62 kg, the Number diarrhoea/dysentery days (T. hyodysenteriae (P18a); PID 1-35) was 27 days and the Percent diarrhoea/dysentery days (T. hyodysenteriae (P18a); PID 1-35) was 12.9%. For the same compound, the “Average weight at termination” value (T. hyodysenteriae (P18a); start 18.8) was 40.5, the “Group weight at termination” value (T. hyodysenteriae (P18a); start 112 kg) was 243 kg and the Average daily weight-gain ([5]; 15 ppm feed) was 0.72 kg. The “Efficacy in preventing swine dysentery” value ([5]; 15 ppm feed) was “good efficacy”, the “Mortality (+ culls)” value ([5]; 15 ppm feed) was 0 and the Number diarrhoea/dysentery days ([5]; 15 ppm feed) was 0 days. For the same compound, the Percent diarrhoea/dysentery days ([5]; 15 ppm feed) was 0%, the “Average weight at end” value ([5]; 15 ppm feed) was 41.0 kg and the “Group weight at end” value ([5]; 15 ppm feed, start 65.5 kg) was 246.5 kg. The “Animals developing a transient dysentery” value ([5]; 25 ppm feed) was “one of the six animals”, the Average daily weight-gain ([5]; 25 ppm feed) was 0.72 kg and the “Mortality (+ culls)” value ([5]; 25 ppm feed) was 0. For the same compound, the Number diarrhoea/dysentery days ([5]; 25 ppm feed) was 14 days, the Percent diarrhoea/dysentery days ([5]; 25 ppm feed) was 6.1% and the “Average weight at end” value ([5]; 25 ppm feed) was 41.0 kg. The “Group weight at end” value ([5]; 25 ppm feed, start 65.7 kg) was 246.5 kg.
